In patent US20160296499A1, “Spiroindoline Antiparasitic Derivatives” (ZOETIS SERVICES LLC, priority 2013, published 2016):
Read-outs that look alike come from different tables or passages of the source.

Key:
[1] = tested on: Dirofilaria immitis microfilariae; test: Dirofilaria immitis, Microfilariae (DiMF) In Vitro Assay; details: Dirofilaria immitis
[2] = tested on: Haemonchus contortus L3; test: Haemonchus contortus, Larvae Stage 3 (HcL3) In Vitro Assay; details: Haemonchus contortus
[3] = biological target: T1, bovine vesicular acetylcholine transporter (VAChT) (Bos taurus, UniProt E1BK36); test: Radioligand Binding Assay; details: Bovine binding Ki, CHO-K1 membranes with recombinant bovine VAChT, [3H]Compound X6 0.3 nM
T1 sequence (E1BK36 1-524): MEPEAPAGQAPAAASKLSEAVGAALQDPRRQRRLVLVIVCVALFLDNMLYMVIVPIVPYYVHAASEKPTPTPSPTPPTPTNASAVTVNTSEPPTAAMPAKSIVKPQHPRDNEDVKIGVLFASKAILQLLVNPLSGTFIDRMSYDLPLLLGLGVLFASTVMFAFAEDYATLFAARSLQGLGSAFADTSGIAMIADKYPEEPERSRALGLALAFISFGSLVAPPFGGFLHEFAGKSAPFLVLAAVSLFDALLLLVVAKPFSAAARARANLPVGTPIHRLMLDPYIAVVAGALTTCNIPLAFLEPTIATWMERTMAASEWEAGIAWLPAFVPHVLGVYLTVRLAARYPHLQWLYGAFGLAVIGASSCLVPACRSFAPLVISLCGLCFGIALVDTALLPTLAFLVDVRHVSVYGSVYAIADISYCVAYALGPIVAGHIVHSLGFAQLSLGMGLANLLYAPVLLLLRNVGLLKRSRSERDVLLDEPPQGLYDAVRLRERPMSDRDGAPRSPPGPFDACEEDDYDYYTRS

[4] = 72 h, read-out: Di MF, MEC, decrease in microfilariae motility by visual assessment, curve starting at 100 μM
[5] = 96 h, read-out: HcL3 MEC, Minimal Effective Concentration whereby worm motility is inhibited by approximately 70%, 37° C., tested 0.001-100 μM
[6] = 96 hours, 37° C., read-out: HcL3 MEC

Compound: N#Cc1ccc(/C=C/CN2CCC3(CC2)CN(C(=O)NCc2ccnc(Cl)c2)c2cc4c(cc23)COC4)cc1 [Example 5, (E)-N-((2-chloropyridin-4-yl)methyl)-1′-(3-(4-cyanophenyl)allyl)-5,7-dihydrospiro[furo[3,4-f]indole-3,4′-piperidine]-1(2H)-carboxamide]
- minimal effective concentration [1, 4]: 10 µM
- minimal effective concentration [2, 5]: 33 µM
- Ki [3]: 0.0701 µM

Compound: CN(C)c1ccc2c(c1)C1(CCN(C/C=C/c3ccc(Cl)c(Cl)c3)CC1)CN2C(=O)NCc1ccnc(Cl)c1 [Example 137, (E)-N-((2-chloropyridin-4-yl)methyl)-1′-(3-(3,4-dichlorophenyl)allyl)-5-(dimethylamino)spiro[indoline-3,4′-piperidine]-1-carboxamide]
- minimal effective concentration [1, 4]: 10 µM
- minimal effective concentration [2, 5]: 3.3 µM
- Ki [3]: 0.516 µM

Compound: O=C(NCc1ccnc(F)c1)N1CC2(CCN(C/C=C/c3ccc(Cl)cc3)CC2)c2ccc(-c3ccccc3OC(F)(F)F)cc21 [Example 73, (E)-1′-(3-(4-chlorophenyl)allyl)-N-((2-fluoropyridin-4-yl)methyl)-6-(2-(trifluoromethoxy)phenyl)spiro[indoline-3,4′-piperidine]-1-carboxamide]
- minimal effective concentration [1, 4]: 3.3 µM
- minimal effective concentration [2, 5]: 100 µM
- Ki [3]: 0.0295 µM

Compound: O=C(NCc1ccnc(Cl)c1)N1CC2(CCN(C/C=C/c3ccc(Cl)cc3)CC2)c2cc(OC(F)(F)F)c(Cl)cc21 [Example 150, (E)-6-chloro-1′-(3-(4-chlorophenyl)allyl)-N-((2-chloropyridin-4-yl)methyl)-5-(trifluoromethoxy)spiro[indoline-3,4′-piperidine]-1-carboxamide]
- minimal effective concentration [1, 4]: 18.2 µM
- minimal effective concentration [2, 5]: 5.7 µM
- Ki [3]: 0.297 µM

Compound: O=C(NCc1ccnc(Cl)c1)N1CC2(CCN(C/C=C/c3ccc(Cl)cc3)CC2)c2cc(S(=O)(=O)C(F)(F)F)ccc21 [Example 78, (E)-1′-(3-(4-chlorophenyl)allyl)-N-((2-chloropyridin-4-yl)methyl)-5-(trifluoromethylsulfonyl)spiro[indoline-3,4′-piperidine]-1-carboxamide]
- minimal effective concentration [1, 4]: 1 µM
- minimal effective concentration [2, 5]: 100 µM
- Ki [3]: 1.29 µM

Compound: O=C(NCc1ccnc(C(F)(F)F)c1)N1CC2(CCN(C/C=C/c3ccc(OC(F)(F)F)cc3)CC2)c2cc(OC(F)(F)F)ccc21 [Example 178, (E)-5-(trifluoromethoxy)-1′-(3-(4-(trifluoromethoxy)phenyl)allyl)-N-((2-(trifluoromethyl)pyridin-4-yl)methyl)spiro[indoline-3,4′-piperidine]-1-carboxamide]
- minimal effective concentration [1, 4]: 3.3 µM
- minimal effective concentration [2, 5]: 100 µM
- Ki [3]: 0.76 µM

Compound: Cn1cc(CNC(=O)N2CC3(CCN(C/C=C/c4ccc(Cl)c(Cl)c4)CC3)c3c2ccc2scnc32)cn1 [Example 26, (E)-1-(3-(3,4-dichlorophenyl)allyl)-N-((1-methyl-1H-pyrazol-4-yl)methyl)spiro[piperidine-4,8′-thiazolo[4,5-e]indole]-6′(7′H)-carboxamide]
- minimal effective concentration [1, 4]: 10 µM
- minimal effective concentration [2, 5]: 10 µM
- Ki [3]: 0.0278 µM

Compound: O=C(NCc1cnc(Cl)s1)N1CC2(CCN(C/C=C/c3ccc(Cl)cc3)CC2)c2c1ccc(Cl)c2Cl [Example 64, (E)-4,5-dichloro-1′-(3-(4-chlorophenyl)allyl)-N-((2-chlorothiazol-5-yl)methyl)spiro[indoline-3,4′-piperidine]-1-carboxamide]
- minimal effective concentration ([1]; 72 hours, read-out: Di MF): 5.7 µM
- minimal effective concentration [2, 6]: 10 µM
- Ki [3]: 0.116 µM

Compound: O=C(NCc1ccnc(F)c1)N1CC2(CCN(C/C=C/c3ccc(Cl)cc3)CC2)c2c1cc(Cl)c(F)c2Cl [Example 61, (E)-4,6-dichloro-1′-(3-(4-chlorophenyl)allyl)-5-fluoro-N-((2-fluoropyridin-4-yl)methyl)spiro[indoline-3,4′-piperidine]-1-carboxamide]
- minimal effective concentration [1, 4]: 10 µM
- minimal effective concentration [2, 5]: 100 µM
- Ki [3]: 0.671 µM

Compound: O=C(NCc1ccnc(Cl)c1)N1CC2(CCN(C/C=C/c3ccc(Cl)cc3)CC2)c2c(Cl)cc(Cl)cc21 [Example 59, (E)-4,6-dichloro-1′-(3-(4-chlorophenyl)allyl)-N-((2-chloropyridin-4-yl)methyl)spiro[indoline-3,4′-piperidine]-1-carboxamide]
- minimal effective concentration ([1]; 72 hours, read-out: Di MF): 10 µM
- minimal effective concentration [2, 6]: 100 µM
- Ki [3]: 0.284 µM

Compound: O=C(NCc1ccnc(Cl)c1)N1CC2(CCN(C/C=C/c3ccc(Cl)cc3)CC2)c2cc(S(F)(F)(F)(F)F)ccc21 [Example 169, (E)-1′-(3-(4-chlorophenyl)allyl)-N-((2-chloropyridin-4-yl)methyl)-5-(pentafluorosulfide)spiro[indoline-3,4′-piperidine]-1-carboxamide]
- minimal effective concentration [1, 4]: 3.3 µM
- minimal effective concentration [2, 5]: 47.8 µM
- Ki [3]: 0.467 µM

Compound: O=C(NCc1ccnc(F)c1)N1CC2(CCN(C/C=C/c3ccc(Cl)cc3)CC2)c2c1cccc2C(F)(F)F [Example 92, (E)-1′-(3-(4-chlorophenyl)allyl)-N-((2-fluoropyridin-4-yl)methyl)-4-(trifluoromethyl)spiro[indoline-3,4′-piperidine]-1-carboxamide]
- minimal effective concentration [1, 4]: 5 µM
- minimal effective concentration [2, 5]: 5 µM
- Ki [3]: 0.796 µM

Compound: O=C(NCc1ccnc(Cl)c1)N1CC2(CCN(C/C=C/c3ccc(Cl)cc3)CC2)c2c(OC(F)(F)F)cccc21 [Example 88, (E)-1′-(3-(4-chlorophenyl)allyl)-N-((2-chloropyridin-4-yl)methyl)-4-(trifluoromethoxy)spiro[indoline-3,4′-piperidine]-1-carboxamide]
- minimal effective concentration [1, 4]: 3.3 µM
- minimal effective concentration [2, 5]: 100 µM
- Ki [3]: 1.13 µM

Compound: O=C(NCc1ccnc(F)c1)N1CC2(CCN(C/C=C/c3ccc(F)cc3)CC2)c2ccc(OC(F)(F)F)cc21 [Example 100, (E)-1′-(3-(4-fluorophenyl)allyl)-N-((2-fluoropyridin-4-yl)methyl)-6-(trifluoromethoxy)spiro[indoline-3,4′-piperidine]-1-carboxamide]
- minimal effective concentration [1, 4]: 10 µM
- minimal effective concentration [2, 5]: 3.3 µM
- Ki [3]: 0.121 µM

Compound: O=C(NCc1ccnc(Cl)c1)N1CC2(CCN(C/C=C/c3ccc(F)cc3)CC2)c2c(Cl)cc(Cl)cc21 [Example 161, (E)-4,6-dichloro-N-((2-chloropyridin-4-yl)methyl)-1′-(3-(4-fluorophenyl)allyl)spiro[indoline-3,4′-piperidine]-1-carboxamide]
- minimal effective concentration [1, 4]: 10 µM
- minimal effective concentration [2, 5]: 10 µM
- Ki [3]: 0.259 µM

Compound: COc1ccc(/C=C/CN2CCC3(CC2)CN(C(=O)NCc2ccnc(Cl)c2)c2ccc4c(cnn4C)c23)cc1 [Example 54, (E)-N-((2-chloropyridin-4-yl)methyl)-1-(3-(4-methoxyphenyl)allyl)-3′-methyl-3′H-spiro[piperidine-4,8′-pyrrolo[3,2-e]indazole]-6′(7′H)-carboxamide]
- minimal effective concentration [1, 4]: 33 µM
- minimal effective concentration [2, 5]: > 100 µM
- Ki [3]: 1.4 µM

Compound: O=C(NCc1ccnc(Cl)c1)N1CC2(CCN(C/C=C/c3ccc(Cl)c(Cl)c3)CC2)c2cc(OC(F)(F)F)ccc21 [Example 55, (E)-N-((2-chloropyridin-4-yl)methyl)-1′-(3-(3,4-dichlorophenyl)allyl)-5-(trifluoromethoxy)spiro[indoline-3,4′-piperidine]-1-carboxamide]
- minimal effective concentration [1, 4]: 5.7 µM
- minimal effective concentration [2, 5]: 3.3 µM
- Ki [3]: 0.876 µM

Compound: COc1cc(CNC(=O)N2CC3(CCN(C/C=C/c4ccc(C(F)(F)F)cc4)CC3)c3cc(Cl)ccc32)ccn1 [Example 183, (E)-5-chloro-N-((2-methoxypyridin-4-yl)methyl)-1′-(3-(4-(trifluoromethyl)phenyl)allyl)spiro[indoline-3,4′-piperidine]-1-carboxamide]
- minimal effective concentration [1, 4]: 3.3 µM
- minimal effective concentration [2, 5]: 10 µM
- Ki [3]: 0.184 µM

Compound: O=C(NCc1ccnc(Cl)c1)N1CC2(CCN(C/C=C/c3ccc(F)cc3)CC2)c2c(OC(F)(F)F)cccc21 [Example 174, (E)-N-((2-chloropyridin-4-yl)methyl)-1′-(3-(4-fluorophenyl)allyl)-4-(trifluoromethoxy)spiro[indoline-3,4′-piperidine]-1-carboxamide]
- minimal effective concentration [1, 4]: 4.4 µM
- minimal effective concentration [2, 5]: 100 µM
- Ki [3]: 1.5 µM

Compound: O=C(NCc1cscn1)N1CC2(CCN(C/C=C/c3ccc(Cl)c(Cl)c3)CC2)c2c1ccc1scnc21 [Example 24, (E)-1-(3-(3,4-dichlorophenyl)allyl)-N-(thiazol-4-ylmethyl)spiro[piperidine-4,8′-thiazolo[4,5-e]indole]-6′(7′H)-carboxamide]
- minimal effective concentration [1, 4]: 33 µM
- minimal effective concentration [2, 5]: 100 µM
- Ki [3]: 1.1 µM

Compound: N#Cc1cccc(-c2ccc3c(c2)C2(CCN(C/C=C/c4ccc(Cl)c(Cl)c4)CC2)CN3C(=O)NCc2ccnc(F)c2)c1 [Example 108, 5-(3-cyanophenyl)-1′-[(E)-3-(3,4-dichlorophenyl)allyl]-N-[(2-fluoro-4-pyridyl)methyl]spiro[indoline-3,4′-piperidine]-1-carboxamide]
- minimal effective concentration [1, 4]: 3.3 µM
- minimal effective concentration [2, 5]: 100 µM
- Ki [3]: 32.6 µM
